Reference: US7951408B2, “Methods of feeding animals” (ADM Alliance Nutrition Inc., priority 2001, dated 2011)
Several values for one entry are separate records, joined by “and”; a condition that tells them apart may be missing. Identical values can stand only once. Like-named read-outs stand apart in the source and are kept apart here. Marks after values point to notes of the source that are not given here.

How the values were obtained:
rumen protein digestion [1] = assay: In vitro fermentation of protein meals with metal ions: RUP after 16 h; conditions: for Mean RUP: 150 mg/L metal ions, 16 h of fermentation
rumen protein digestion [2] = assay: In vitro digestion in artificial rumen system (Ankom Daisy): rumen protein digestion
Protocol: Metals were incorporated at 150 or 300 mg/L. […] Previous efforts focused on the digestion of high protein feeds such as oilseed meals.

crossbred wether lambs = assay: Performance of lambs receiving zinc or zinc, manganese, iron combinations; type: in vivo; conditions: 16% CP, Low RUP diet plus metal sulfates (about 500 ppm total metal)
Protocol: Individually fed crossbred wether lambs were fed diets containing 14% CP (as a negative control) or 16% CP with low or high RUP content to examine the feeding of divalent metals singly or in combination. Bypass protein content was increased by feeding higher amounts of heat-treated soybean meal. In the 16%, Low RUP diet, the following metal additions were tested: 500 ppm Zn; 250 ppm Zn:250 ppm Mn; and 170 ppm Zn: 170 ppm Mn: 170 ppm Fe. All metals were added in the sulfate form, and iron was in the form of ferrous sulfate. Feeding the 16% CP: High RUP diet or adding metals to the 16% CP: Low RUP tended to decrease gain and feed efficiency with only small effects on feed intake relative to that obtained with the 16%, low RUP diet (Table 6).
For instance, Table 6A presents the data of Table 6 in a different format. The average body weight is determined by dividing the sum of the initial weight and the 42 day weight of the lamb by 2.

Holstein cows = conditions: complete feed 1020 ppm of zinc, six weeks
Text: The source of RUP was a combination of heated soybean meal, corn gluten meal, and distiller dried grains.

lactating dairy cows = conditions: for Dry matter intake / Intestinal Amino Acid flows, Lysine / Intestinal Amino Acid flows, Methionine / Intestinal Amino Acid flows, Total Essential Amino Acids / Ruminal digestion, Neutral Detergent Fiber / Ruminal digestion, Organic Matter / Ruminal digestion, Starch: additional 250 ppm zinc
Protocol: The concentration of RUP in high and low RUP diets were manipulated by changing the proportions of low RUP feeds (soybean meal, canola) and high RUP feeds (heated soybean meal, corn gluten meal).
Using the data presented in Table 8, the amount of metal ions fed to the cows can also be expressed in grams of metal ions per kilogram of the cow's body weight per day. For instance, Table 8A presents the data of Table 8 in a different format. The average body weight is determined by the fact that an average mature dairy cow weighs about 640 kg. The grams of metal ions fed to the cow per kg of the cow's body weight per day is determined by: multiplying the DMI (kg/day) times the metal ion concentration (grams of metal ions per kg of dry feed), resulting in the amount of metal ions in grams fed to the cow per day; the amount of metal ions in grams fed to the cow per day is divided by the average body weight of the cow, thus resulting in the grams of metal ions fed to the cow per kg of the cow's body weight per day.

rumen starch digestion = assay: In vitro starch digestion and pH in artificial rumen system (Ankom Daisy)
Protocol: In vitro digestions of a complete dairy pellet, and a dairy total mixed ration TMR) were performed using an artificial rumen system (Ankom Daisy system) to evaluate the effects of metal ions on rumen starch digestion.

[Cl][Fe]([Cl])[Cl] [Ferric Iron]
Mean RUP (rumen protein digestion [1]; Canola): 51.6^ab | Mean RUP (rumen protein digestion [1]; Cottonseed): 58.4^b | Mean RUP (rumen protein digestion [1]; Heated Canola): 81.1^a | Mean RUP (rumen protein digestion [1]; Heated SBM): 81.7^ab | Mean RUP (rumen protein digestion [1]; SBM): 29.1^a

O=S(=O)([O-])[O-].[Zn+2] [Zinc, zinc sulfate]
Average rumen undegraded protein for all samples (rumen protein digestion [2]): 45 % of protein and 48 % of protein | Mean RUP (rumen protein digestion [1]; Canola): 57.3^b | Mean RUP (rumen protein digestion [1]; Cottonseed): 64.4^c | Mean RUP (rumen protein digestion [1]; Heated Canola): 85.2^b | Mean RUP (rumen protein digestion [1]; Heated SBM): 85.2^b | Mean RUP (rumen protein digestion [1]; SBM): 56.4^c | ADG (average daily gain) (crossbred wether lambs): 451^a,b g/day | G/F × 100 (ratio of weight gain to feed intake) (crossbred wether lambs): 27.3^b | Total Gain (crossbred wether lambs): 18.81^a kg | 42 day weight (crossbred wether lambs; listed as Zn): 43.8^a kg and 43.8 kg | DMI (dry matter intake) (crossbred wether lambs; listed as Zn): 1.66^a kg/day and 1.66 kg/day | Milk (Holstein cows): 33.2 kg/day | Milk Fat (Holstein cows): 3.25% | Milk Protein (Holstein cows): 3.20% | Dry matter intake (lactating dairy cows; High RUP diet): 22.2 kg/day | Intestinal Amino Acid flows, Lysine (lactating dairy cows; High RUP diet): 200.0 g/day | Intestinal Amino Acid flows, Methionine (lactating dairy cows; High RUP diet): 58.2 g/day | Intestinal Amino Acid flows, Total Essential Amino Acids (lactating dairy cows; High RUP diet): 1601 g/day | Ruminal digestion, Neutral Detergent Fiber (lactating dairy cows; High RUP diet): 24.8 % of intake | Ruminal digestion, Organic Matter (lactating dairy cows; High RUP diet): 45.5 % of intake | Ruminal digestion, Starch (lactating dairy cows; High RUP diet): 52.8 % of intake | Dry matter intake (lactating dairy cows; Low RUP diet): 21.8 kg/day | Intestinal Amino Acid flows, Lysine (lactating dairy cows; Low RUP diet): 183.3 g/day | Intestinal Amino Acid flows, Methionine (lactating dairy cows; Low RUP diet): 49.0 g/day | Intestinal Amino Acid flows, Total Essential Amino Acids (lactating dairy cows; Low RUP diet): 1331 g/day | Ruminal digestion, Neutral Detergent Fiber (lactating dairy cows; Low RUP diet): 22.0 % of intake | Ruminal digestion, Organic Matter (lactating dairy cows; Low RUP diet): 47.3 % of intake | Ruminal digestion, Starch (lactating dairy cows; Low RUP diet): 53.6 % of intake | digestion of starch in the rumen (lactating dairy cows; both the low and high RUP diets, in words): reduced | Ammonia (rumen starch digestion): 30.8 mg/dL and 29.7 mg/dL | Ammonia, Main Effects (rumen starch digestion): -1.1 mg/dL | Digestion Rates, Rumen Undegraded Starch (16 hours), Main Effects (rumen starch digestion): .038** % per hour | Digestion Rates, pH Decline, Main Effects (rumen starch digestion): −.027 % per hour | Rumen Undegraded Starch (16 hours) (rumen starch digestion): 13.2% and 12.0% | Rumen Undegraded Starch (16 hours), Main Effects (rumen starch digestion): 4.0% | calculated kinetic rate for starch digestion (rumen starch digestion): decreased | pH at 16 hours, Main Effects (rumen starch digestion): .05* | pH at 48 hours, Main Effects (rumen starch digestion): .05 | rumen undegraded starch measured at 16 h (rumen starch digestion): increased

ferrous sulfate [Ferrous Iron]
decreasing rumen protein digestion, effectiveness (rumen protein digestion [1]; 150 mg/L, in words): substantially more effective than the ferric ion | Mean RUP (rumen protein digestion [1]; Canola): 57.7^b | Mean RUP (rumen protein digestion [1]; Cottonseed): 62.1^bc | Mean RUP (rumen protein digestion [1]; Heated Canola): 83.5^b | Mean RUP (rumen protein digestion [1]; Heated SBM): 83.9^b | Mean RUP (rumen protein digestion [1]; SBM): 42.9^b

manganous sulfate [Manganese]
rumen undegraded protein (rumen protein digestion [2]; Alfalfa Haylage, 150 mg/L): 26.1 | rumen undegraded protein (rumen protein digestion [2]; Alfalfa Haylage, 300 mg/L): 24.8 | rumen undegraded protein (rumen protein digestion [2]; Dairy Concentrate Feeds, 150 mg/L): 50.9 | rumen undegraded protein (rumen protein digestion [2]; Dairy Concentrate Feeds, 300 mg/L): 52.3 | Average rumen undegraded protein for all samples (rumen protein digestion [2]; metal inclusion 150 mg/L): 43.2 % of protein | Average rumen undegraded protein for all samples (rumen protein digestion [2]; metal inclusion 300 mg/L): 42.5 % of protein | Ammonia (rumen starch digestion; 150 mg/L metal): 32.1 mg/dL | Digestion Rates, Rumen Undegraded Starch (16 hours) (rumen starch digestion; 150 mg/L metal): −.137 % per hour | Digestion Rates, pH Decline (rumen starch digestion; 150 mg/L metal): .135 % per hour | Rumen Undegraded Starch (16 hours) (rumen starch digestion; 150 mg/L metal): 5.1% | pH at 16 hours (rumen starch digestion; 150 mg/L metal): −.28 | pH at 48 hours (rumen starch digestion; 150 mg/L metal): −.30 | Ammonia (rumen starch digestion; 300 mg/L metal): 34.2 mg/dL | Digestion Rates, Rumen Undegraded Starch (16 hours) (rumen starch digestion; 300 mg/L metal): −.132 % per hour | Digestion Rates, pH Decline (rumen starch digestion; 300 mg/L metal): .247 % per hour | Rumen Undegraded Starch (16 hours) (rumen starch digestion; 300 mg/L metal): 8.0% | pH at 16 hours (rumen starch digestion; 300 mg/L metal): −.34 | pH at 48 hours (rumen starch digestion; 300 mg/L metal): −.27 | Ammonia, Main Effects (rumen starch digestion; main effect of metal): 1.8 mg/dL | Digestion Rates, Rumen Undegraded Starch (16 hours), Main Effects (rumen starch digestion; main effect of metal): 0.0 % per hour | Digestion Rates, pH Decline, Main Effects (rumen starch digestion; main effect of metal): −.043 % per hour | Rumen Undegraded Starch (16 hours), Main Effects (rumen starch digestion; main effect of metal): −2.0% | pH at 16 hours, Main Effects (rumen starch digestion; main effect of metal): .05* | pH at 48 hours, Main Effects (rumen starch digestion; main effect of metal): .03
